Laboratory results taken from article PMC8708274, “Unveiling the Membrane and Cell Wall Action of Antimicrobial Cyclic Lipopeptides: Modulation of the Spectrum of Activity” (Pharmaceutics, 2021).
Where two headings read alike, the source gives them in different places. Positions of bridges follow the written chain, without caps; N, C: chain ends. Non-standard residues stand in square brackets, D forms with d. Residues, ends and D or L forms follow the SMILES beside them. *: point of attachment. Lauroyl = CCCCCCCCCCCC(=O)*; Decanoyl = CCCCCCCCCC(=O)*; Nonanoyl = CCCCCCCCC(=O)*; Nle = CCCC[C@H](N)C(=O)O; Octanoyl = CCCCCCCC(=O)*; Dab = NCC[C@H](N)C(=O)O; Hexanoyl = CCCCCC(=O)*

Tests used:
[1] = Kinetics of insertion into monolayers; format: binding; details: 25 min after injection, 10 mM Tris pH 7.4, 25 °C, average of three independent experiments (error < 10%); for Increase in surface pressure (Δπ), POPE/POPG: POPE/POPG 6:4, initial pressure 32 mN·m^−1, peptide 0.48 μM; for Increase in surface pressure (Δπ), POPC / Increase in surface pressure (Δπ), POPG: initial pressure 32 mN·m^−1, peptide 0.48 μM
Description: (§1) Monolayer studies were performed at room temperature (25 °C) on a monolayer system (NIMA Technology, Coventry, UK) by using a cylindrical PTFE (Teflon®, Wilmington, DE, USA) trough (5 cm diameter) containing a continuously stirred aqueous phase (12 mL, 10 mM Tris pH 7.4) and a Wilhelmy platinum plate connected to an electrobalance. The system was enclosed in a Plexiglass box to reduce surface contamination, and before each run, the plate and the trough were cleaned with hot water at >70 °C to avoid carryover of lipid or peptide. Monolayers of POPG, POPE/POPG (6:4), POPC, or LPS were formed by applying small drops of the lipid stock solutions in CHCl3 on the aqueous subphase with a microsyringe (Hamilton Co., Reno, NV, USA) to achieve a surface pressure of 32 mN·m^−1. After 10 min, allowing for solvent evaporation, a known aliquot of peptide was added without disturbance of the monolayer via an inlet port, and the surface pressure was continuously monitored.

[2] = test system: Staphylococcus aureus ATTC 25923; format: cell-based
Description: (§2) The minimal peptide concentration required to prevent the growth of a given test organism was determined after incubation overnight at 37 °C and was defined as the MIC. Activity was determined in representative bacteria, Escherichia coli ATTC 25922, Pseudomonas aeruginosa ATTC 27853, and Staphylococcus aureus ATTC 25923, using the broth microdilution method. Serial-two-fold dilutions of peptide (from 0.06 to 32 μg/mL) were performed in Mueller–Hinton broth (MHB) culture medium in sterile 96-well polypropylene microtiter plates inoculated with a final concentration of 5 × 10^5 CFU·mL^−1 of bacteria in each well. Bacteria were in the pre-exponential phase. Each determination was done by triplicate. In order to be considered acceptable, the three MIC results have to differ in only in one well, and the result was always given as the higher of the three. Drug-free and microorganism-free wells were used as positive and negative controls, respectively. Bacterial growth was visually determined on the basis of turbidity.

[3] = test system: Escherichia coli ATTC 25922; format: cell-based
Description: as §2

[4] = test system: Pseudomonas aeruginosa ATTC 27853; format: cell-based
Description: as §2

[5] = Kinetics of insertion into monolayers; format: binding, Salmonella enterica serotype Minnesota Re 595; details: initial pressure 32 mN·m^−1, peptide 0.48 μM, 25 min after injection, 10 mM Tris pH 7.4, 25 °C, average of three independent experiments (error < 10%)
Description: as §1

[6] = broth microdilution, MHB, 5 × 10^5 CFU/mL, overnight 37 °C, triplicate, higher of the three

Row | SMILES | Increase in surface pressure (Δπ), POPE/POPG [1] [mN·m^−1] | Increase in surface pressure (Δπ), POPC [1] [mN·m^−1] | Increase in surface pressure (Δπ), POPG [1] [mN·m^−1] | MIC SA ([2]; ATTC 25923) [µM] | MIC SA [2, 6] [µg/mL] | MIC EC ([3]; ATTC 25922) [µM] | MIC EC [3, 6] [µg/mL] | MIC PA ([4]; ATTC 27853) [µM] | MIC PA [4, 6] [µg/mL] | Increase in surface pressure (Δπ), LPS [5] [mN·m^−1]
1 | CCCCCC(=O)N[C@@H](CCN)C(=O)N[C@H](C(=O)N[C@@H](CCN)C(=O)N[C@H]1CSSC[C@H](C(N)=O)NC(=O)[C@H](CCN)NC(=O)[C@H](CCN)NC(=O)[C@H](CC(C)C)NC(=O)[C@@H](Cc2ccccc2)NC(=O)[C@H](CCN)NC1=O)[C@@H](C)O [spB-1] (Hexanoyl-[Dab]T[Dab]C[Dab][dF]L[Dab][Dab][dC]-NH2; disulfide 4-10) | 4.6 | 0.9 | 5.7 | > 27 | > 32 | > 27 | > 32 | > 27 | > 32 | 12.1
2 | CCCCCCCC(=O)N[C@@H](CCN)C(=O)N[C@H](C(=O)N[C@@H](CCN)C(=O)N[C@H]1CSSC[C@H](C(N)=O)NC(=O)[C@H](CCN)NC(=O)[C@H](CCN)NC(=O)[C@H](CC(C)C)NC(=O)[C@@H](Cc2ccccc2)NC(=O)[C@H](CCN)NC1=O)[C@@H](C)O [spB-2] (Octanoyl-[Dab]T[Dab]C[Dab][dF]L[Dab][Dab][dC]-NH2; disulfide 4-10) | 5.5 | 1.8 | 7.0 | 26 | > 32 | 13 | 16 | 6.6 | 8 | 12.6
3 | CCCCCCCCCCCC(=O)N[C@@H](CCN)C(=O)N[C@H](C(=O)N[C@@H](CCN)C(=O)N[C@H]1CSSC[C@H](C(N)=O)NC(=O)[C@H](CCN)NC(=O)[C@H](CCN)NC(=O)[C@H](CC(C)C)NC(=O)[C@@H](Cc2ccccc2)NC(=O)[C@H](CCN)NC1=O)[C@@H](C)O [spB-4] (Lauroyl-[Dab]T[Dab]C[Dab][dF]L[Dab][Dab][dC]-NH2; disulfide 4-10) | 5.0 | 2.5 | 6.7 | 6.3 | 8 | 13 | 16 | 6.3 | 8 | 12.2
4 | CCCCCCCC(=O)N[C@@H](CCN)C(=O)N[C@H](C(=O)N[C@@H](CCN)C(=O)N[C@H]1CSSC[C@H](C(N)=O)NC(=O)[C@H](CCN)NC(=O)[C@H](CCN)NC(=O)[C@H](CCCC)NC(=O)[C@@H](Cc2ccccc2)NC(=O)[C@H](CCN)NC1=O)[C@@H](C)O [spB-5] (Octanoyl-[Dab]T[Dab]C[Dab][dF][Nle][Dab][Dab][dC]-NH2; disulfide 4-10) | 6.5 | 0.8 | 7.3 | > 26 | > 32 | 1.7 | 2 | 3.3 | 4 | 10.6
5 | CCCCCCCCC(=O)N[C@@H](CCN)C(=O)N[C@H](C(=O)N[C@@H](CCN)C(=O)N[C@H]1CSSC[C@H](C(N)=O)NC(=O)[C@H](CCN)NC(=O)[C@H](CCN)NC(=O)[C@H](CCCC)NC(=O)[C@@H](Cc2ccccc2)NC(=O)[C@H](CCN)NC1=O)[C@@H](C)O [spB-6] (Nonanoyl-[Dab]T[Dab]C[Dab][dF][Nle][Dab][Dab][dC]-NH2; disulfide 4-10) | 5.0 | 0.4 | 6.0 | 13 | 16 | 1.6 | 2 | 0.82 | 1 | 10.8
6 | CCCCCCCCCCCC(=O)N[C@@H](CCN)C(=O)N[C@H](C(=O)N[C@@H](CCN)C(=O)N[C@H]1CSSC[C@H](C(N)=O)NC(=O)[C@H](CCN)NC(=O)[C@H](CCCNC(=N)N)NC(=O)[C@H](CCCC)NC(=O)[C@@H](Cc2ccccc2)NC(=O)[C@H](CCN)NC1=O)[C@@H](C)O [spB-9] (Lauroyl-[Dab]T[Dab]C[Dab][dF][Nle]R[Dab][dC]-NH2; disulfide 4-10) | 6.0 | 2.2 | 3.4 | 1.5 | 2 | 3.0 | 4 | 3.0 | 4 | 11.1
7 | CCCCCC(=O)N[C@@H](CCN)C(=O)N[C@H](C(=O)N[C@@H](CCN)C(=O)N[C@H]1CSSC[C@H](C(N)=O)NC(=O)[C@H](CCN)NC(=O)[C@H](CCN)NC(=O)[C@H](CC(C)C)NC(=O)[C@@H](CC(C)C)NC(=O)[C@H](CCN)NC1=O)[C@@H](C)O [spE-1] (Hexanoyl-[Dab]T[Dab]C[Dab][dL]L[Dab][Dab][dC]-NH2; disulfide 4-10) | 4.1 | 0.3 | 2.8 | > 28 | > 32 | > 28 | > 32 | > 28 | > 32 | 10.6
8 | CCCCCCCC(=O)N[C@@H](CCN)C(=O)N[C@H](C(=O)N[C@@H](CCN)C(=O)N[C@H]1CSSC[C@H](C(N)=O)NC(=O)[C@H](CCN)NC(=O)[C@H](CCN)NC(=O)[C@H](CC(C)C)NC(=O)[C@@H](CC(C)C)NC(=O)[C@H](CCN)NC1=O)[C@@H](C)O [spE-2] (Octanoyl-[Dab]T[Dab]C[Dab][dL]L[Dab][Dab][dC]-NH2; disulfide 4-10) | 6.4 | 0.6 | 4.3 | > 27 | > 32 | 14 | 16 | 3.4 | 4 | 9.5
9 | CCCCCCCCCC(=O)N[C@@H](CCN)C(=O)N[C@H](C(=O)N[C@@H](CCN)C(=O)N[C@H]1CSSC[C@H](C(N)=O)NC(=O)[C@H](CCN)NC(=O)[C@H](CCN)NC(=O)[C@H](CC(C)C)NC(=O)[C@@H](CC(C)C)NC(=O)[C@H](CCN)NC1=O)[C@@H](C)O [spE-3] (Decanoyl-[Dab]T[Dab]C[Dab][dL]L[Dab][Dab][dC]-NH2; disulfide 4-10) | 7.9 | 1.3 | 5.7 | 6.7 | 8 | 6.7 | 8 | 1.7 | 2 | 10.0
